Experimental data as given in PubChem BioAssay AID1918933 (Molecular Pharmacology Branch, DTP, NCI, 2023).

Tested on: 186277-243-T-J2-PDC complex spheroid viability
Assay: Anticancer human tumor 186277-243-T-J2-PDC patient-derived colon adenocarcinoma cell line growth inhibition
Conditions: for IC50: curve of first compound; for viability, T/C: stronger effect = lower value; active means viability on the fitted dose curve at most 10% of control; inactive means the rest
How it was run: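 Multicellular complex spheroids of tumor cells with human endothelial cells (HUVEC) and mesenchymal stem cells; the LSD1 inhibitor iadademstat was combined with standard-of-care or investigational agents. Top concentration at or near clinical Cmax, half-log dilutions; final DMSO ≤0.25%.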

[1] = second compound 0.1 µM, first compound 0.000949 µM
[2] = second compound 0.1 µM, first compound 0.003 µM
[3] = second compound 0.1 µM, first compound 0.00949 µM
[4] = second compound 0.1 µM, first compound 0.03 µM
[5] = second compound 0.1 µM, first compound 0.0949 µM
[6] = second compound 0.1 µM, first compound 0.3 µM
[7] = second compound 0.316 µM, first compound 0.000949 µM
[8] = second compound 0.316 µM, first compound 0.003 µM
[9] = second compound 0.316 µM, first compound 0.00949 µM
[10] = second compound 0.316 µM, first compound 0.03 µM
[11] = second compound 0.316 µM, first compound 0.0949 µM
[12] = second compound 0.316 µM, first compound 0.3 µM
[13] = second compound 1 µM, first compound 0.000949 µM
[14] = second compound 1 µM, first compound 0.003 µM
[15] = second compound 1 µM, first compound 0.00949 µM
[16] = second compound 1 µM, first compound 0.03 µM
[17] = second compound 1 µM, first compound 0.0949 µM
[18] = second compound 1 µM, first compound 0.3 µM
[19] = second compound 3.16 µM, first compound 0.000949 µM
[20] = second compound 3.16 µM, first compound 0.003 µM
[21] = second compound 3.16 µM, first compound 0.00949 µM
[22] = second compound 3.16 µM, first compound 0.03 µM
[23] = second compound 3.16 µM, first compound 0.0949 µM
[24] = second compound 3.16 µM, first compound 0.3 µM
[25] = second compound 10 µM, first compound 0.000949 µM
[26] = second compound 10 µM, first compound 0.003 µM
[27] = second compound 10 µM, first compound 0.00949 µM
[28] = second compound 10 µM, first compound 0.03 µM
[29] = second compound 10 µM, first compound 0.0949 µM
[30] = second compound 10 µM, first compound 0.3 µM
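Further: 7 day exposure to compounds.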
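Wherever viability, T/C is given: 100% = DMSO vehicle control viability.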

Nc1ncn(C2CC(O)C(CO)S2)c(=O)n1 (stereo not given) + NC1CCC(NC2CC2c2ccccc2)CC1
72.4 nM: IC50 (second compound 1 µM)
74 nM: IC50 (second compound 0.316 µM)
89 nM: IC50 (second compound 10 µM)
77.6 nM: IC50 (second compound 0.1 µM)
75.3 nM: IC50 (second compound 3.16 µM)
active: viability, T/C [6] 9.48%
inactive: viability, T/C [1] 125% | viability, T/C [2] 126% | viability, T/C [3] 132% | viability, T/C [4] 107% | viability, T/C [5] 38.1% | viability, T/C [7] 108% | viability, T/C [8] 129% | viability, T/C [9] 123% | viability, T/C [10] 105% | viability, T/C [11] 34.9% | viability, T/C [12] 10.6% | viability, T/C [13] 115% | viability, T/C [14] 125% | viability, T/C [15] 146% | viability, T/C [16] 90% | viability, T/C [17] 40.3% | viability, T/C [18] 11.5% | viability, T/C [19] 119% | viability, T/C [20] 132% | viability, T/C [21] 140% | viability, T/C [22] 109% | viability, T/C [23] 35.7% | viability, T/C [24] 12.7% | viability, T/C [25] 118% | viability, T/C [26] 125% | viability, T/C [27] 144% | viability, T/C [28] 112% | viability, T/C [29] 46.9% | viability, T/C [30] 13.3%

CC1COCCN1c1cc(-c2ccnn2C)c2ccnc(-c3ccn[nH]3)c2n1 (stereo not given) + NC1CCC(NC2CC2c2ccccc2)CC1
5.63 nM: IC50 (second compound 1 µM)
6.56 nM: IC50 (second compound 0.1 µM)
inactive: viability, T/C (second compound 0.1 µM, first compound 0.00316 µM) 84.2% | viability, T/C (second compound 0.1 µM, first compound 0.01 µM) 30.2% | viability, T/C (second compound 0.1 µM, first compound 0.0316 µM) 10.9% | viability, T/C (second compound 0.1 µM, first compound 0.1 µM) 9.28% | viability, T/C (second compound 0.1 µM, first compound 0.316 µM) 10% | viability, T/C (second compound 0.1 µM, first compound 1 µM) 11.5% | viability, T/C (second compound 0.316 µM, first compound 0.00316 µM) 74.5% | viability, T/C (second compound 0.316 µM, first compound 0.01 µM) 30.9% | viability, T/C (second compound 0.316 µM, first compound 0.0316 µM) 10.2% | viability, T/C (second compound 0.316 µM, first compound 0.1 µM) 8.48% | viability, T/C (second compound 0.316 µM, first compound 0.316 µM) 9.85% | viability, T/C (second compound 0.316 µM, first compound 1 µM) 11.8% | viability, T/C (second compound 1 µM, first compound 0.00316 µM) 69.3% | viability, T/C (second compound 1 µM, first compound 0.01 µM) 30.8% | viability, T/C (second compound 1 µM, first compound 0.0316 µM) 11.1% | viability, T/C (second compound 1 µM, first compound 0.1 µM) 8.48% | viability, T/C (second compound 1 µM, first compound 0.316 µM) 9.78% | viability, T/C (second compound 1 µM, first compound 1 µM) 12.1% | viability, T/C (second compound 3.16 µM, first compound 0.00316 µM) 79.9% | viability, T/C (second compound 3.16 µM, first compound 0.01 µM) 30.4% | viability, T/C (second compound 3.16 µM, first compound 0.0316 µM) 10.4% | viability, T/C (second compound 3.16 µM, first compound 0.1 µM) 8.64% | viability, T/C (second compound 3.16 µM, first compound 0.316 µM) 9.76% | viability, T/C (second compound 3.16 µM, first compound 1 µM) 12% | viability, T/C (second compound 10 µM, first compound 0.00316 µM) 71.8% | viability, T/C (second compound 10 µM, first compound 0.01 µM) 31.6% | viability, T/C (second compound 10 µM, first compound 0.0316 µM) 11% | viability, T/C (second compound 10 µM, first compound 0.1 µM) 9.23% | viability, T/C (second compound 10 µM, first compound 0.316 µM) 9.95% | viability, T/C (second compound 10 µM, first compound 1 µM) 11.8%
5.91 nM: IC50 (second compound 10 µM)
6.04 nM: IC50 (second compound 0.316 µM)
6.34 nM: IC50 (second compound 3.16 µM)

Nc1ccn(C2OC(CO)C(O)C2(F)F)c(=O)n1 (stereo not given) + NC1CCC(NC2CC2c2ccccc2)CC1
< 0.949 nM: IC50 (second compound 0.1 µM) | IC50 (second compound 0.316 µM) | IC50 (second compound 1 µM) | IC50 (second compound 3.16 µM) | IC50 (second compound 10 µM)
inactive: viability, T/C [1] 25.8% | viability, T/C [2] 17.1% | viability, T/C [3] 16.5% | viability, T/C [4] 15.9% | viability, T/C [5] 15.9% | viability, T/C [6] 15.1% | viability, T/C [7] 22.9% | viability, T/C [8] 18.7% | viability, T/C [9] 16.2% | viability, T/C [10] 15.6% | viability, T/C [11] 16.1% | viability, T/C [12] 15.6% | viability, T/C [13] 26% | viability, T/C [14] 18.6% | viability, T/C [15] 18.1% | viability, T/C [16] 18% | viability, T/C [17] 16.8% | viability, T/C [18] 16.3% | viability, T/C [19] 27.2% | viability, T/C [20] 20.5% | viability, T/C [21] 20.1% | viability, T/C [22] 19.6% | viability, T/C [23] 19.2% | viability, T/C [24] 15.9% | viability, T/C [25] 31.3% | viability, T/C [26] 25.1% | viability, T/C [27] 25.3% | viability, T/C [28] 18.5% | viability, T/C [29] 23.3% | viability, T/C [30] 20.9%

CCc1c2c(nc3ccc(O)cc13)-c1cc3c(c(=O)n1C2)COC(=O)[C@]3(O)CC + NC1CCC(NC2CC2c2ccccc2)CC1
2.69 nM: IC50 (second compound 1 µM)
2.11 nM: IC50 (second compound 0.1 µM)
active: viability, T/C [5] 1.51% | viability, T/C [6] 0.43% | viability, T/C [11] 1.53% | viability, T/C [12] 0.53% | viability, T/C [17] 1.56% | viability, T/C [18] 0.4% | viability, T/C [23] 1.23% | viability, T/C [24] 0.47% | viability, T/C [29] 1.74% | viability, T/C [30] 1.75%
3.63 nM: IC50 (second compound 3.16 µM)
2.87 nM: IC50 (second compound 10 µM)
inactive: viability, T/C [1] 63% | viability, T/C [2] 40.7% | viability, T/C [3] 33.6% | viability, T/C [4] 17.5% | viability, T/C [7] 62.7% | viability, T/C [8] 42.2% | viability, T/C [9] 30.1% | viability, T/C [10] 19.3% | viability, T/C [13] 65.7% | viability, T/C [14] 43.1% | viability, T/C [15] 38.1% | viability, T/C [16] 20.4% | viability, T/C [19] 71.2% | viability, T/C [20] 49.2% | viability, T/C [21] 38.2% | viability, T/C [22] 20.8% | viability, T/C [25] 80.1% | viability, T/C [26] 44.5% | viability, T/C [27] 32.6% | viability, T/C [28] 15.5%
2.07 nM: IC50 (second compound 0.316 µM)
